Data published in ChEMBL document CHEMBL1287749, “Acetazolamide-based fungal chitinase inhibitors” (Bioorg Med Chem, 2010).
Activity calls are given as the source filed them. No cut-off for these calls is given here.

Biological target: T1, Endochitinase A1 (Aspergillus fumigatus) (UniProt Q873Y0)
T1 sequence (whole entry): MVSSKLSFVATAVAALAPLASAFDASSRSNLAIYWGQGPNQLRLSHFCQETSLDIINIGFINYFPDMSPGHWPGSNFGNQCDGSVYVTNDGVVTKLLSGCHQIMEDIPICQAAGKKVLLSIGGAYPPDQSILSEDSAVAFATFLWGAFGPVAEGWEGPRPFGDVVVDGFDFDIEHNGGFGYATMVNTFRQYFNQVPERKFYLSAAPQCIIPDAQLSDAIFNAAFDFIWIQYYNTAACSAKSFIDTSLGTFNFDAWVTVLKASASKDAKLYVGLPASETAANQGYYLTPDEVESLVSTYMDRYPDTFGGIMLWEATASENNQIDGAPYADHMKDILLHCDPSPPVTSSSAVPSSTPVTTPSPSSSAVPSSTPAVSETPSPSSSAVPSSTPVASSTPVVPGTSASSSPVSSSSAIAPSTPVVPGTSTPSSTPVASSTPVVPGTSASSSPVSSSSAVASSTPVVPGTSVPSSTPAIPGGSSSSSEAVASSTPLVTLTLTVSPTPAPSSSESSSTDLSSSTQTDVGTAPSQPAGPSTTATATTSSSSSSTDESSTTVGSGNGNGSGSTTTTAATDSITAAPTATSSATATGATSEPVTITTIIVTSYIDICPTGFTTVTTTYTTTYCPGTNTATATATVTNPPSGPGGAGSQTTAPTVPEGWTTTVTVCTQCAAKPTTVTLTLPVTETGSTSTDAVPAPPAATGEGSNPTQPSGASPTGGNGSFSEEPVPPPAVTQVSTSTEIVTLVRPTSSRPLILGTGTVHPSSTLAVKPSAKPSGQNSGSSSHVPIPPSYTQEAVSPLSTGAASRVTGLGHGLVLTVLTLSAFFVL
Conditions: 1 mM

inhibition: inactive
SMILES: Nc1nnc(S(N)(=O)=O)s1
